A value given as a limit tells only on which side of the number the result lay.

The term IC50 denotes the concentration that gives 50% inhibition.

T1 sequence (P30518 whole entry): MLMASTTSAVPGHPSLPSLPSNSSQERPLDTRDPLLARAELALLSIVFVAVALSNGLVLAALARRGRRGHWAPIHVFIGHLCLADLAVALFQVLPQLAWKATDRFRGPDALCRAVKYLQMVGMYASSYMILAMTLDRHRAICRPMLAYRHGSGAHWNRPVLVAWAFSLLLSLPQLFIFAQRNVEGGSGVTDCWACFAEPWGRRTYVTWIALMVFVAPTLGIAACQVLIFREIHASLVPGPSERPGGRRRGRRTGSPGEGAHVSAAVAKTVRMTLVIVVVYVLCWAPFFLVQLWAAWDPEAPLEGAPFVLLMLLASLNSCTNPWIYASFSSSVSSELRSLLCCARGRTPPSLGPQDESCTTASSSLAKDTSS

The first experiment concerns the target T1, human Arginine Vasopressin Receptor V2 (AVPR2) (Homo sapiens, UniProt P30518).
T1 construct: host or cells: 1321N1 (cAMPZen V2 assay ready frozen cells)
As to the kind of experiment: Vasopressin V2 receptor antagonist assay (TR-FRET cAMP, 1321N1 cells). The class given is cell-based. Here is the method: The purpose of the assay was to determine the inhibitory effect of synthesized compounds on the Vasopressin receptor 2. The assay was performed in commercially available 1321N1 cells expressing the human Arginine Vasopressin Receptor V2 (AVPR2) (Perkin Elmer #ES-363-CF). Arginine Vasopressin (AVP) evokes an increase in intracellular cAMP in these cells which is measured in a TR-FRET assay using a Europium cAMP tracer and ULight labelled antibody reagents contained in a LANCE Ultra cAMP kit (Perkin Elmer #TRF0263). Increases in cAMP in the assay result in a reduction in TR-FRET as the cAMP produced by the stimulated cells competes with the Eu-cAMP tracer for binding sites on the ULight labelled antibody. Test compounds were assessed for their ability to affect the magnitude of the response to AVP, with antagonists showing a concentration-dependent decrease in the AVP-mediated reduction in TR-FRET signal.
cAMPZen V2 assay ready cells were thawed at 37° C. and resuspended directly from frozen in 9 ml growth medium consisting of DMEM supplemented with 10% v/v fetal bovine serum, 1× non-essential amino acids, and 1 mM sodium pyruvate. Cells were spun at 1000 rpm for 3 minutes and the supernatant was carefully removed and discarded. The pellet was resuspended in 5 ml stimulation buffer and the cell density determined using the Vi-Cell automated cell counter. The cell suspension was diluted to a 0.2×10^6/ml suspension ready for plating. To all wells of a white 384-well Optiplate (Perkin Elmer #6007299) 5 μL of cells in stimulation buffer were dispensed (1,000 cells per well). Stimulation buffer consisted of HBSS (+Ca/+Mg) supplemented with 5 mM HEPES, 0.1% BSA stabiliser and 0.5 mM IBMX.
At the start of each assay day the potency of AVP was assessed and an EC80 concentration determined for subsequent compound profiling. Assays were performed by first an addition of 2.5 μl of control or test compound at 4× final concentration in stimulation buffer followed by 2.5 μl of AVP at 4× final concentration in stimulation buffer. After a 1 hour reaction, detection reagents were added by first an addition of 5 μl EU-cAMP tracer, followed by 5 μl ULight-anti-cAMP both diluted as per the manufacturer's instructions. After a one hour incubation, plates were ready to be read (signals then remained stable for up to 24 hours). Changes in time resolved fluorescence were monitored with excitation via a laser (337 nm) measuring both 615 nm and 665 nm emission wavelengths. […] For compound profiling, test compounds were dispensed by the Labcyte Echo (10-point curve, 1:3 dilutions) in a target 0.1 μl volume then diluted 750-fold in stimulation buffer containing 3% DMSO prior to addition to the cells. At the end of the incubation period, 2.5 μl of AVP in stimulation buffer was added at the previously determined EC80 concentration.
In-plate controls for the assay included a Tolvaptan concentration-response curve as the reference V2 antagonist and an AVP concentration-response curve to confirm the reproducibility of the EC80 used for the compound challenge.
For orientation: In TR-FRET formats the signal depends on donor and acceptor labels being close together.
The compound `CC1COc2cc(Cl)ccc2N1C(=O)N1CC2(C1)CN(c1ncccn1)C2` (single isomer, unassigned) [1-83-B, (7-chloro-3-methyl-2,3-dihydro-4H-benzo[b][1,4]oxazin-4-yl)(6-(pyrimidin-2-yl)-2,6-diazaspiro[3.3]heptan-2-yl)methanone] had an IC50 not below 1 µM.

With `CC1COc2cc(F)ccc2N1C(=O)N1CC2(C1)CN(c1noc3ccccc13)C2` (single isomer, unassigned) [4-3-B], the IC50 fell in the range of 0.5 to 1 µM.

Compound `CC1COc2cc(Cl)ccc2N1C(=O)N1CC2(C1)CN(c1cccnn1)C2` (single isomer, unassigned) [9-1-A] came in with a 50% inhibitory concentration (IC50) not below 1 µM.

Compound `CC1COc2cc(F)ccc2N1C(=O)N1CC2(C1)CN(c1ncc(F)cn1)C2` (single isomer, unassigned) [18-4-B] returned an IC50 not below 1 µM.

On to `CC1COc2cc(F)c(F)cc2N1C(=O)N1CC2(C1)CN(c1cccnn1)C2` (single isomer, unassigned) [19-3-B], for which the IC50 is not below 1 µM.

Compound `CC1COc2cc(F)c(F)cc2N1C(=O)N1CC2(C1)CN(c1ccc(F)cn1)C2` (single isomer, unassigned) [19-5-B] yielded an IC50 of less than 0.1 µM.

Compound `CC1COc2cc(Cl)ccc2N1C(=O)N1CC2(C1)CN(c1cccnc1)C2` (single isomer, unassigned) [20-1-B] displayed a half-inhibitory concentration (IC50) not below 1 µM.

In turn, `Cc1cncc(N2CC3(CN(C(=O)N4c5ccc(F)cc5OCC4C)C3)C2)n1` (single isomer, unassigned) [20-2-A] showed an IC50 not below 1 µM.

Consider `O=C(N1CC2(C1)CN(c1ncccn1)C2)N1CCOc2cc(Cl)ccc21` [1-4], for which the IC50 was not below 1 µM.

In turn, `Cc1cccnc1N1CC2(CN(C(=O)N3CCOc4cc(Cl)ccc43)C2)C1` [1-5] gave an IC50 not below 1 µM.

`Cc1ccnc(N2CC3(CN(C(=O)N4CCOc5cc(Cl)ccc54)C3)C2)c1` [1-14] came in with an IC50 not below 1 µM.

For the compound `COc1ccnc(N2CC3(CN(C(=O)N4CCOc5cc(Cl)ccc54)C3)C2)c1` [1-15], the IC50 was not below 1 µM.

`O=C(N1CC2(C1)CN(c1ncccc1F)C2)N1CCc2cc(Cl)ccc21` [1-76] displayed a 50% inhibitory concentration (IC50) not below 1 µM.

Take `O=C(N1CC2(C1)CN(c1ccccn1)C2)N1CCc2cc(Cl)ccc21` [1-77]: the IC50 is not below 1 µM.

Turning to `O=C(N1CC2(C1)CN(c1cc(F)ccn1)C2)N1CCc2cc(Cl)ccc21` [1-79], the IC50 is not below 1 µM.

As to `O=C(N1CC2(C1)CN(c1cccnn1)C2)N1CCOc2cc(Cl)c(F)cc21` [1-81], the IC50 is not below 1 µM.

The compound `O=C(N1CC2(C1)CN(c1noc3ccccc13)C2)N1CCOc2cc(Cl)ccc21` [4-1, (6-(benzo[d]isoxazol-3-yl)-2,6-diazaspiro[3.3]heptan-2-yl)(7-chloro-2,3-dihydro-4H-benzo[b][1,4]oxazin-4-yl)methanone] had an IC50 not below 1 µM.

As to `O=C(N1CC2(C1)CN(c1ncc(F)cn1)C2)N1CCOc2cc(Cl)ccc21` [4-2], the IC50 is not below 1 µM.

As for `CC1COc2cc(F)ccc2N1C(=O)N1CC2(C1)CN(c1noc3ccccc13)C2` (centres unmarked) [4-3], the IC50 is not below 1 µM.

The compound `Cc1nc(N2CC3(CN(C(=O)N4CCOc5cc(Cl)ccc54)C3)C2)ncc1F` [6-1, (7-chloro-2,3-dihydro-4H-benzo[b][1,4]oxazin-4-yl)(6-(5-fluoro-4-methylpyrimidin-2-yl)-2,6-diazaspiro[3.3]heptan-2-yl)methanone] gave an IC50 not below 1 µM.

Take `O=C(N1CC2(C1)CN(c1ccccn1)C2)N1CCOc2cc(Cl)ccc21` [8-2]: the IC50 was not below 1 µM.

Consider `O=C(N1CC2(C1)CN(c1cnccn1)C2)N1CCOc2cc(Cl)ccc21` [8-3], for which the IC50 was not below 1 µM.

Compound `O=C(N1CC2(C1)CN(c1ccc(F)cn1)C2)N1CCc2cc(Cl)ccc21` [8-11] had an IC50 not below 1 µM.

Regarding `O=C(N1CC2(C1)CN(c1cnccn1)C2)N1CCc2cc(Cl)ccc21` [8-14], the IC50 was not below 1 µM.

`COc1ccc2c(c1)OCCN2C(=O)N1CC2(C1)CN(c1ccc(F)cn1)C2` [9-2] displayed an IC50 not below 1 µM.

As for `O=C(N1CC2(C1)CN(c1ccc(F)cn1)C2)N1CCOc2cc(F)c(F)cc21` [9-6], the IC50 is not below 1 µM.

`O=C(N1CC2(C1)CN(c1ccc(F)cn1)C2)N1CCC(F)(F)c2cc(Cl)ccc21` [17-1, (6-chloro-4,4-difluoro-3,4-dihydroquinolin-1(2H)-yl)(6-(5-fluoropyridin-2-yl)-2,6-diazaspiro[3.3]heptan-2-yl)methanone] came in with an IC50 not below 1 µM.

For the compound `CC1COc2cc(F)ccc2N1C(=O)N1CC2(C1)CN(c1ncccn1)C2` (centres unmarked) [18-1, (7-fluoro-3-methyl-2,3-dihydro-4H-benzo[b][1,4]oxazin-4-yl)(6-(pyrimidin-2-yl)-2,6-diazaspiro[3.3]heptan-2-yl)methanone], the 50% inhibitory concentration (IC50) was not below 1 µM.

With `CC1COc2cc(F)c(F)cc2N1C(=O)N1CC2(C1)CN(c1ncccn1)C2` (centres unmarked) [19-1, (6,7-difluoro-3-methyl-2,3-dihydro-4H-benzo[b][1,4]oxazin-4-yl)(6-(pyrimidin-2-yl)-2,6-diazaspiro[3.3]heptan-2-yl)methanone], the IC50 is not below 1 µM.

With `CC1COc2cc(F)c(F)cc2N1C(=O)N1CC2(C1)CN(c1cccnn1)C2` (centres unmarked) [19-3], the IC50 was not below 1 µM.

For `Cc1cnc(N2CC3(CN(C(=O)N4c5ccc(Cl)cc5OCC4C)C3)C2)nc1` (centres unmarked) [20-13], the half-maximal inhibitory concentration (IC50) fell in the range of 0.1 to 0.5 µM.

A further experiment addresses T2, human Oxytocin Receptor (hOTR) (Homo sapiens, UniProt P30559).
T2 construct: host or cells: CHEM-1 (ready-to-assay frozen cells)
T2 sequence (P30559 1-389): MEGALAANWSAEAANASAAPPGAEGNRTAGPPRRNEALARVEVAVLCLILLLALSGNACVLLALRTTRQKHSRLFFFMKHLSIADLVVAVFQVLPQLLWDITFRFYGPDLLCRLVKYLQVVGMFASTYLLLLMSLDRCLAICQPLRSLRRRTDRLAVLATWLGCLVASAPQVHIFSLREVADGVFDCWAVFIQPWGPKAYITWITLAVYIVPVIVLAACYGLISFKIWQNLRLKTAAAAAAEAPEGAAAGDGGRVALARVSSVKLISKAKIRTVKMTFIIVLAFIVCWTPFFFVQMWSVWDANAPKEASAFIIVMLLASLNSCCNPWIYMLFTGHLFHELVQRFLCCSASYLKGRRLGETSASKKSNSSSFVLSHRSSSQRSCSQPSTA
As to the kind of experiment: Oxytocin receptor (OTR) antagonist assay (FLIPR calcium, CHEM-1-hOTR cells). The class given is cell-based. Here is the method: This assay was performed in CHEM-1 cells expressing the human Oxytocin Receptor (hOTR) to determine the inhibitory effect of the compounds of the invention on the human Oxytocin receptor. Oxytocin evokes an increase in intracellular calcium in CHEM-1-hOTR cells which is measured in a fluorescence assay on the FLIPR^TETRA using calcium sensitive dyes. Test compounds were assessed for their ability to affect the magnitude of the response to oxytocin, with antagonists showing a concentration-dependent reduction in the oxytocin-mediated fluorescence.
CHEM-1-hOTR ready was used to assay frozen cells (Eurofins #HTS09ORTA) which are supplied with a proprietary Media Component.
Day 1 of the assay: Cells were thawed in a 37° C. water bath and diluted with the supplied Media Component to a final volume of 10 ml. The cell suspension was centrifuged at 1000 rpm for 3 min at room temperature and the supernatant was discarded. The cell pellet was resuspended in Media Component (10.5 ml) and the cells (25 μL) were dispensed into a poly-D-lysine coated black, clear bottomed, 384-well plate. The plates were incubated overnight at 37° C., 5% CO2.
Day 2: At the start of each assay day the potency of oxytocin was assessed and an EC80 concentration was determined for subsequent compound profiling. Assays were performed using a two-step addition protocol on the FLIPR^TETRA; first addition of 5 μl of control or test compound at 10× final in assay buffer with 15 min incubation at 37° C., 5% CO2 followed by 10 μl of oxytocin at 6× final concentration in assay buffer. Changes in fluorescence were monitored for 3 min after both additions on the FLIPR^TETRA using 470-495 nm excitation and 515-575 nm emission wavelengths. The assay buffer consisted of HBSS (+Ca/+Mg) supplemented with 20 mM HEPES, and for the preparation of the oxytocin agonist only, 0.1% w/v bovine serum albumin. The assay was initiated by the removal of growth media from the cells and replaced with 45 μl of Calcium-6 dye (Molecular Devices) prepared at 1× in assay buffer. Cells were loaded with dye for 60-90 min at 37° C., 5% CO2 before initiation of the FLIPR^TETRA protocol. […] For compound profiling, test compounds were first serially diluted in DMSO (10-point curve, 1:3 dilutions) then diluted 33.3-fold in assay buffer prior to addition to the dye loaded cells on the FLIPR^TETRA. At the end of the incubation period 10 μl of oxytocin in assay buffer containing 0.1% BSA was added at the previously determined EC80 concentration.
In-plate controls for the assay included a L-368,899 concentration-response curve as the reference OTR antagonist and an oxytocin concentration-response curve to confirm the reproducibility of the EC80 used for the compound challenge.
Take `CC1COc2cc(Cl)ccc2N1C(=O)N1CC2(C1)CN(c1ncccn1)C2` (single isomer, unassigned) [1-83-B, (7-chloro-3-methyl-2,3-dihydro-4H-benzo[b][1,4]oxazin-4-yl)(6-(pyrimidin-2-yl)-2,6-diazaspiro[3.3]heptan-2-yl)methanone]: the IC50 is 0.1 to 0.5 µM.

With `CC1COc2cc(F)ccc2N1C(=O)N1CC2(C1)CN(c1noc3ccccc13)C2` (single isomer, unassigned) [4-3-B], the IC50 was not below 1 µM.

As to `O=C(N1CC2(C1)CN(c1ccc(F)cn1)C2)N1CCOCc2cc(Cl)ccc21` [8-4], the IC50 is not below 1 µM.

On to `O=C(N1CC2(C1)CN(c1ccc(F)cn1)C2)N1CCC(O)c2cc(Cl)ccc21` (centres unmarked) [13-1, (6-chloro-4-hydroxy-3,4-dihydroquinolin-1(2H)-yl)(6-(5-fluoropyridin-2-yl)-2,6-diazaspiro[3.3]heptan-2-yl)methanone], for which the IC50 is not below 1 µM.

(Values after patent US12152038B2, “Vasopressin receptor antagonists and products and methods related thereto” (Neumora Therapeutics, Inc., priority 2017, dated 2024).)
